Data from article PMC3001897, “High-Throughput Chemical Screen Identifies a Novel Potent Modulator of Cellular Circadian Rhythms and Reveals CKIα as a Clock Regulatory Kinase” (PLoS Biology, 2010).
Where “and” joins values, the source holds several entries; their conditions need not be identical. Equal entries are not always repeated.

Assays:
Bmal1-dLuc U2OS cells [1] = experiment: Time-course assay of endogenous PER1 abundance with parallel luminescence rhythms; type: cell-based, human; conditions: for Period of Bmal1-dLuc luminescence rhythm: control 0 µM 26 h; for Time of second trough of Bmal1-dLuc luminescence rhythm: control 0 µM 34 h; for Time of second peak of PER1 protein rhythm: control 0 µM 40 h
Description: Bmal1-dLuc U2OS cells were plated onto 6-well-plates (2.0×10^5 cells/well). After 2 d, the medium was replaced with 2 ml explant medium containing 0, 3, or 9 µM longdaysin. The plate was covered with film and kept at 36°C. At indicated time points, the cells were collected with ice-cold PBS and stored at −80°C. Then the cell pellets were homogenized in SDS sample buffer and analyzed by Western blotting with anti-PER1 antibody (Cosmo Bio, KAL-KI044) or anti-α-tubulin antibody. In parallel, luminescence rhythms of the cells plated on 35 mm dishes were recorded with LumiCycle luminometer at 36°C.

[2] = system: CKIα- and CKIδ-dependent mobility-shift of PER1; experiment: PER1 electrophoretic mobility-shift (phosphorylation) in HEK293T cells; type: cell-based; conditions: 10 or 20 µM, 24 h
Description: HEK293T cells (1.25×10^6 cells) were reverse transfected on 6-well plates by Lipofectamine 2000 with 1 µg each of expression vectors for C-terminally 3XFlag-tagged clock protein (in p3XFLAG-CMV-14, Sigma) and N-terminally HA-tagged kinase (in p3XFLAG-CMV-14). For ERK2, 0.05 µg of expression vector with 0.95 µg of empty vector was used because of its efficient expression. After 24 h, the cells were collected with ice-cold PBS and suspended in 100 µl of incubation buffer [50 mM Tris, 50 mM NaCl, 2 mM EDTA, 10% glycerol, 1 mM DTT, Complete Protease Inhibitor Cocktail (Roche), Phosphatase Inhibitor Cocktail 1 and 2 (Sigma), pH 8.0]. The mixture was supplemented with NP-40 (final 1%) and incubated on ice for 15 min, followed by centrifugation (16,000×g) at 4°C for 10 min. […] The bound proteins were eluted with SDS sample buffer, separated by SDS-PAGE (4%–12% gradient gel), and analyzed by Western blotting with anti-Flag antibody (Sigma, F1804) or anti-HA antibody conjugated with HRP (Roche, 12013819001). For the analysis of PER1 electrophoretic mobility-shift, the cell extracts were separated by SDS-PAGE (3%–8% gradient gel, Invitrogen) and analyzed by Western blotting with anti-Flag antibody or anti-α-tubulin antibody (Santa Cruz Biotechnology, sc-32293). Protein concentration of each sample was measured by the Lowry method using DC protein assay (BioRad).

lung explants = experiment: Circadian period in lung explants from mPer2Luc knockin mice; type: cell-based, mouse; conditions: 0 to 9 µM
Description: Explants of lung and SCN were dissected from mPer2^Luc knockin mice and cultured in explant medium as described previously. The medium was changed every week with increasing concentration of longdaysin each time (from 0 to 9 µM, final 0.7% DMSO). The luminescence was recorded every 10 min with LumiCycle luminometer (Actimetrics), and the period parameter was obtained by using LumiCycle Analysis software (Actimetrics).

embryonic fibroblasts = experiment: Circadian period in embryonic fibroblasts from CKIδ deficient mPer2Luc knockin mice; type: cell-based, mouse
Description: (§1) Luminescence rhythms of adult tail fibroblasts and embryonic fibroblasts from mPer2^Luc knockin mice were analyzed similarly to U2OS cells, except that 1,800 cells were plated per well. Because of the low luminescence intensity of the fibroblasts, the higher sensitivity ViewLux imager was used for rhythm recording.

Bmal1-dLuc U2OS cells [3] = experiment: Cytotoxicity in the U2OS circadian assay; type: cell-based, human
Description: (§2) The compound screen was done with the high-throughput circadian assay system as described previously. In brief, Bmal1-dLuc U2OS cells were suspended in the culture medium (DMEM supplemented with 10% fetal bovine serum, 0.29 mg/ml L-glutamine, 100 units/ml penicillin, and 100 µg/ml streptomycin) and plated onto 384-well white solid-bottom plates at 20 µl (2,000 cells) per well. After 2 d, 50 µl of the explant medium (DMEM supplemented with 2% B27, 10 mM HEPES, 0.38 mg/ml sodium bicarbonate, 0.29 mg/ml L-glutamine, 100 units/ml penicillin, 100 µg/ml streptomycin, 0.1 mg/ml gentamicin, and 1 mM luciferin, pH 7.2) was dispensed to each well, followed by the application of 500 nl of compounds (dissolved in DMSO; final 0.7% DMSO). The plate was covered with an optically clear film and set to luminescence monitoring system equipped with a CCD imager (ViewLux, Perkin Elmer). The luminescence was recorded every 2 h for 3–4 days. In follow-up studies, the luminescence was recorded every 100 min by using a microplate reader (Infinite M200, Tecan). The period parameter was obtained from the luminescence rhythm by curve fitting program CellulaRhythm or MultiCycle (Actimetrics), both of which gave similar results.

Bmal1-dLuc U2OS cells [4] = experiment: U2OS cell-based circadian assay (Bmal1-dLuc luminescence rhythms); set-up: species or system human
Description: as §2

adult tail fibroblasts = experiment: Circadian period in adult tail fibroblasts from mPer2Luc knockin mice; type: cell-based, mouse
Description: as §1

[5] = Bmal1-dLuc U2OS cells, from Figure 1B

CC(C)n1cnc2c(NCc3cccc(C(F)(F)F)c3)ncnc21 [Longdaysin, 9-isopropyl-N-(3-(trifluoromethyl)benzyl)-9H-purin-6-amine]
Period of Bmal1-dLuc luminescence rhythm (Bmal1-dLuc U2OS cells [1]; 3 µM): 32 h
Time of second trough of Bmal1-dLuc luminescence rhythm (Bmal1-dLuc U2OS cells [1]; 3 µM): 38 h
Time of second peak of PER1 protein rhythm (Bmal1-dLuc U2OS cells [1]; 3 µM): 40 to 46 h
Period of Bmal1-dLuc luminescence rhythm (Bmal1-dLuc U2OS cells [1]; 9 µM): 38 h
Time of second trough of Bmal1-dLuc luminescence rhythm (Bmal1-dLuc U2OS cells [1]; 9 µM): 46 h
Time of second peak of PER1 protein rhythm (Bmal1-dLuc U2OS cells [1]; 9 µM): 52 h
Overall protein amount of endogenous PER1 (Bmal1-dLuc U2OS cells [1]; 3 or 9 µM versus 0 µM control): strongly up-regulated
PER1 mRNA level (Bmal1-dLuc U2OS cells [1]; 3 or 9 µM, RT-qPCR): without affecting its mRNA level
Effect on CKIα- and CKIδ-dependent mobility-shift of PER1 [2]: reduced the CKIα- and CKIδ-dependent mobility-shift of PER1
Effect on circadian period (lung explants): dose-dependent period lengthening
Effect on circadian period (embryonic fibroblasts; CKIδ deficient (CKIδΔ2/Δ2) cells): lengthened the period in a dose-dependent manner
Effect on circadian period (embryonic fibroblasts; wild type (CKIδ+/+) cells): lengthened the period in a dose-dependent manner
Concentration showing cytotoxicity (Bmal1-dLuc U2OS cells [3]): 71 µM
Period change (lengthening) (Bmal1-dLuc U2OS cells [4]; 10 µM, U2OS cells): > 10 h and 13 h
Concentration for period change, 5 h (Bmal1-dLuc U2OS cells [4]; [5]): 1.5 µM
Concentration for period change, 10 h (Bmal1-dLuc U2OS cells [4]; [5]): 5.7 µM
Concentration for period change, 15 h (Bmal1-dLuc U2OS cells [4]; [5]): 13 µM
Potency relative to compound 1 (times more potent) (Bmal1-dLuc U2OS cells [4]; period lengthening): 3 times
Reversibility of period effect after washout (Bmal1-dLuc U2OS cells [4]; washout, U2OS cells, mouse fibroblasts, lung (Figure S2)): reversible
Effect on circadian period (adult tail fibroblasts): dose-dependent period lengthening
